# According to ChEMBL document CHEMBL1123356, “Plant antitumor agents. 22. Isolation of 11-hydroxycamptothecin from Camptotheca acuminata Decne: total synthesis and biological activity” (1986):
# Legend:
# Format in all cases: functional, Mus musculus
# L1210 [1] = assay: Compound was tested for active dose in L1210 Leukemia assay; 10-40 mg/kg
# L1210 [2] = assay: Compound was tested for maximum percentage T/C in L1210 Leukemia assay at 40 mg/kg (no cures out of 6)
# L1210 [3] = assay: Compound was tested for toxic dose in L1210 Leukemia assay
# L1210 [4] = assay: Compound was tested for active dose in L1210 Leukemia assay; 7.5-60 mg/kg
# L1210 [5] = assay: Compound was tested for maximum percentage T/C in L1210 Leukemia assay at 60 mg/kg (3 cures out of 6)
# L1210 [6] = assay: Compound was tested for active dose in L1210 Leukemia assay; 2-8 mg/kg
# L1210 [7] = assay: Compound was tested for maximum percentage T/C in L1210 Leukemia assay at 8 mg/kg (no cures out of 6)
Structure (SMILES),Active dose (L1210 [1]) [mg/kg],T/C (L1210 [2]) [%],Toxic dose (L1210 [3]) [mg/kg],Active dose (L1210 [4]) [mg/kg],T/C (L1210 [5]) [%],Active dose (L1210 [6]) [mg/kg],T/C (L1210 [7]) [%]
CC[C@@](O)(C(=O)[O-])c1cc2n(c(=O)c1CO)Cc1cc3ccccc3nc1-2.[Na+],10,178,80,,,,
CC[C@@]1(O)C(=O)OCc2c1cc1n(c2=O)Cc2cc3ccc(O)cc3nc2-1 (racemic),,,,7.5,357,,
CC[C@@]1(O)C(=O)OCc2c1cc1n(c2=O)Cc2cc3ccccc3nc2-1 [CAMPTOTHECIN],,,16,,,2,164
